“And” between values parts separate entries of the source, which are not always exact repeats. Equal values may be shown once.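 Step 1: Grow cells in 96-well plates. Step 2: Expose to compound for 48 hours at 5 concentrations. Step 3: Interpolate endpoints linearly; if unreached, use highest concentration. At the GI50, growth is halved. TGI: concentration producing complete growth inhibition.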
Assays:
Test in all cases: DTP human tumour cell line panel, 48 h
[1] = test system: RPMI-8226 leukemia
[2] = test system: HOP-62 NSCLC
[3] = test system: SF-295 CNS
[4] = test system: NCI-H226 lung
[5] = test system: SN12C renal
[6] = test system: CCRF-CEM leukemia
[7] = test system: HCT-15 colon
[8] = test system: DU-145 prostate
[9] = test system: SF-268 CNS
[10] = test system: RXF 393 renal

| Compound | GI50 [1] | GI50 [2] | TGI [2] | GI50 [3] | TGI [3] | GI50 [4] | TGI [4] | TGI [5] | GI50 [6] | TGI [6] | TGI [7] | GI50 [8] | TGI [8] | GI50 [9] | TGI [9] | GI50 [10] | TGI [10] | TGI [1] [µM] | GI50 [5] [µM] | GI50 [7] [µM] |
| --- | --- | --- | --- | --- | --- | --- | --- | --- | --- | --- | --- | --- | --- | --- | --- | --- | --- | --- | --- | --- |
| CC(C)(C)c1cc(NC(=O)Nc2ccc(-c3cn4c(n3)sc3cc(OCCN5CCOCC5)ccc34)cc2)no1 | 0.363 µM and 0.16 µM and 0.34 µM | 1.88 µM and 1.19 µM and 2.29 µM | 6.57 µM and 10 µM and > 10 µM | 1.01 µM and 0.404 µM and 1.42 µM | 18.1 µM and 2.55 µM and > 10 µM | 3.38 µM and 0.921 µM and 4.29 µM | 18.6 µM and 5.24 µM and > 10 µM | 24.9 µM and 13.2 µM and > 10 µM | 0.18 µM and 1.49 µM | 18.6 µM and > 10 µM | > 91.9 µM and 14.8 µM and > 10 µM | 10.7 µM and 2.28 µM and 9.69 µM | 22.5 µM and 13.3 µM and > 10 µM | 3.17 µM and 2.19 µM and 5.09 µM | 14.4 µM and 14.8 µM and > 10 µM | 0.8 µM and 0.489 µM and 0.881 µM | 6.26 µM and 3.49 µM and > 10 µM |  |  |  |
| CC(C)(C)c1cc(/C=N/NC(=O)c2ccccc2NC(=O)c2cccs2)c(O)c(C(C)(C)C)c1 | 1.05 µM | 0.779 µM | 21.6 µM | 0.521 µM | 17.9 µM | 3 µM | > 100 µM | 62.8 µM | 0.336 µM | 11.7 µM | > 100 µM | 4.13 µM | > 100 µM | 0.668 µM | > 100 µM | 3.02 µM | 47.4 µM | 14 | 1.92 | 0.22 |
| Cn1c2c(c3ccccc31)CCN(CCCCN1CCN(c3ccccc3)CC1)C2=O |  |  | > 100 µM |  | > 100 µM |  | > 87 µM | > 91.4 µM |  | > 79.9 µM | > 100 µM |  | > 100 µM |  | > 78.4 µM |  | 76.4 µM | > 92.3 |  |  |
| COc1ccc(CCN(CC(=O)N(CC(N)=O)C2CCC[C@@H]2OCc2ccccc2)C(=O)CN(C(=O)CN(CCc2ccc(Cl)cc2)C(=O)CN(C(=O)CN(C)Cc2ccccc2F)[C@H](C)C2CCCCC2)[C@H](C)C2CCCCC2)cc1OC (some centres not stated) | 1.19 µM | 3.02 µM | > 50 µM | 1.16 µM | 3.49 µM | 1.86 µM | 41.7 µM | > 50 µM | 1.66 µM | 15.1 µM | > 50 µM | 2.42 µM | > 50 µM | 1.29 µM | > 50 µM | 1.49 µM | 3.84 µM | 3.28 | 2.13 | 2.77 |
| C=C1C(=O)O[C@H]2[C@H](OC(C)=O)[C@@H](C)CCCC3(C)OC3CCC3(CO3)[C@H](O)C[C@@H]12 (some centres not stated) | 1.38 µM | 21.4 µM | 43 µM | 11.4 µM | 28.3 µM | 10.9 µM | 31.7 µM | 24.8 µM | 2.44 µM | 7.27 µM | 21.8 µM | 3.92 µM | 14.3 µM | 15.2 µM | 40.4 µM | 12.4 µM | > 100 µM | 4.08 | 10.4 | 10.2 |
| Cc1cnc2oc3ccc(O)cc3c2c1-c1ccccc1 | > 100 µM | 27.3 µM | 83.4 µM | 23.8 µM | 93.2 µM | 9.35 µM | 44.2 µM | 47.3 µM | > 100 µM | > 100 µM | > 100 µM | 62.5 µM | > 100 µM | 16.1 µM | 58.8 µM | 18.5 µM | 67.3 µM | > 100 | 10 | 27.2 |
| O=C(c1ccc(C(F)(F)F)c(Cl)c1)N(Cc1ccc(Cl)cc1)c1ccc(-c2cc(C(F)(F)F)[nH]n2)c(O)c1 | 0.659 µM | 1.02 µM | 2.33 µM | 1.08 µM | 2.87 µM | 1.08 µM | 2.94 µM | 2.04 µM | 1.11 µM | 5.33 µM | 1.97 µM | 1.43 µM | 5.34 µM | 1.32 µM | 5.19 µM | 0.923 µM | 2.04 µM | 2.23 | 0.886 | 0.777 |
